This experiment addresses T1, mGlyT-1b (Mus musculus, UniProt P28571).
T1 construct: host or cells: Flp-in-CHO
T1 sequence (P28571 1-651 isoform P28571-2): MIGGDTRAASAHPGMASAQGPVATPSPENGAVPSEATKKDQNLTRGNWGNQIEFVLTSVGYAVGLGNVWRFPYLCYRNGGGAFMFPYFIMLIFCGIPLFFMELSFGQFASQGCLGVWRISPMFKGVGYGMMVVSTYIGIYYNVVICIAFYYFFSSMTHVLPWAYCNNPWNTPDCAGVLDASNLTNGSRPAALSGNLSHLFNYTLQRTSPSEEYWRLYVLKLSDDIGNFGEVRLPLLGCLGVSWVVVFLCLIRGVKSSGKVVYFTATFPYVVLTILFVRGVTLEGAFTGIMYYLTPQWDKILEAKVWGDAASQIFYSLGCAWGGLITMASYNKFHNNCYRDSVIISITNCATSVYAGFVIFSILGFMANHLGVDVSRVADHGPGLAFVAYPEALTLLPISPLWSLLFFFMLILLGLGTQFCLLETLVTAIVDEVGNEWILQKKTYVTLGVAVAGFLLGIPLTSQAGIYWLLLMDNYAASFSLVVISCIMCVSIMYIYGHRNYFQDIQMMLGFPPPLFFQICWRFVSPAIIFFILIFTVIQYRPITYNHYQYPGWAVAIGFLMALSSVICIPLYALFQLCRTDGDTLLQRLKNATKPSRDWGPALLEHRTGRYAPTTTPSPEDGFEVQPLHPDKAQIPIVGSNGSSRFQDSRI
The experiment is described as follows: Glycine uptake inhibition assay (mGlyT-1b), [3H]-glycine uptake in Flp-in-CHO cells. It is filed as cell-based. The note with it: Flp-in-CHO cells stably transfected with mGlyT1b cDNA, 20 min at 22° C. preincubation. The method, then: Nutrient mixture F-12 (Gibco Life-technologies), fetal bovine serum (FBS) 5%, (Gibco life technologies), Penicillin/Streptomycin 1% (Gibco life technologies), Hygromycin 0.6 mg/ml (Gibco life technologies), Glutamine 1 mM Gibco life technologies) • Uptake buffer (UB): 150 mM NaCl, 10 mM Hepes-Tris, pH 7.4, […], 2.5 mM KCl, 2.5 mM MgSO4, 10 mM (+) D-glucose. • Flp-in™-CHO (Invitrogen Cat n° R758-07) cells stably transfected with mGlyT1b cDNA. Glycine Uptake Inhibition Assay (mGlyT-1b)
On day 1 mammalian cells, (Flp-in™-CHO), transfected with mGlyT-1b cDNA, were plated at the density of 40,000 cells/well in complete F-12 medium, without hygromycin in 96-well culture plates. On day 2, the medium was aspirated and the cells were washed twice with uptake buffer (UB). The cells were then incubated for 20 min at 22° C. with either (i) no potential competitor, (ii) 10 mM non-radioactive glycine, (iii) a concentration of a potential inhibitor. A range of concentrations of the potential inhibitor was used to generate data for calculating the concentration of inhibitor resulting in 50% of the effect (e.g. IC50, the concentration of the competitor inhibiting glycine uptake of 50%). A solution was then immediately added containing [^3H]-glycine 60 nM (11-16 Ci/mmol) and 25 μM non-radioactive glycine. The plates were incubated with gentle shaking and the reaction was stopped by aspiration of the mixture and washing (three times) with ice-cold UB. The cells were lysed with scintillation liquid, shaken 3 hours and the radioactivity in the cells was counted using a scintillation counter.
A word on the IC50: it is the concentration that gives 50% inhibition. Read a high IC50 as weaker potency. `COc1cc(C(F)(F)F)cc(SC)c1C(=O)NC(c1ccccc1)C1(N2C3CCC2COC3)CCC1` (racemic) [Example 71, (rac)-2-Methoxy-6-methylsulfanyl-N-{[1-(3-oxa-8-aza-bicyclo[3.2.1]oct-8-yl)-cyclobutyl]-phenyl-methyl}-4-trifluoromethyl-benzamide] came in with a half-maximal inhibitory concentration (IC50) of 0.0521 µM.
`CSc1cc(C(F)(F)F)cc(C(F)(F)F)c1C(=O)NC(c1ccccc1)C1(N2CCCC2)CCC1` (single isomer, unassigned; (+)) [Example 30, (+)-2-Methylsulfanyl-N-[phenyl-(1-pyrrolidin-1-yl-cyclobutyl)-methyl]-4,6-bis-trifluoromethyl-benzamide]: the IC50 was found to be 0.047 µM.
In turn, `COc1cc(C(F)(F)F)cc(SC)c1C(=O)NC(c1ccccc1)C1(N2CCCC2)CCC1` (single isomer, unassigned; (+)) [Example 32, (+)-2-Methoxy-6-methylsulfanyl-N-[phenyl-(1-pyrrolidin-1-yl-cyclobutyl)-methyl]-4-trifluoromethyl-benzamide] displayed an IC50 of 0.0225 µM.
In the case of `COc1cc(C(F)(F)F)cc(SC)c1C(=O)NC(c1ccccc1)C1(N2CCCC2)CCC1` (single isomer, unassigned; (+)) [Example 33, (+)-2-Methoxy-6-methylsufanyl-N-[phenyl-(1-pyrrolidin-1-yl-cyclobutyl)-methyl]-4-trifluoromethyl-benzamide] it was 0.00847 µM.
`CSc1cc(C(F)(F)F)ccc1C(=O)NC(c1ccccc1)C1(N2CCCC2)CCC1` (single isomer, unassigned; (+)) [Example 35, (+)-2-Methylsulfanyl-N-[phenyl-(1-pyrrolidin-1-yl-cyclobutyl)-methyl]-4-trifluoromethyl-benzamide] yielded an IC50 of 0.0098 µM.
In the case of `CSc1cc(C(F)(F)F)cc(C(F)(F)F)c1C(=O)NC(c1ccccc1)C1(N2CCCC2)CC1` (single isomer, unassigned; (-)) [Example 29, (−)-2-Methylsulfanyl-N-[phenyl-(1-pyrrolidin-1-yl-cyclopropyl)-methyl]-4,6-bis-trifluoromethyl-benzamide] it was 0.0509 µM.
Turning to `CSc1cc(C(F)(F)F)cc(C(F)(F)F)c1C(=O)NC(c1ccccc1)C1(N2CCCC2)CCC1` (single isomer, unassigned; (-)) [Example 31, (−)-2-Methylsulfanyl-N-[phenyl-(1-pyrrolidin-1-yl-cyclobutyl)-methyl]-4,6-bis-trifluoromethyl-benzamide], half-maximal inhibition (IC50) required 0.0181 µM.
As for `CSc1cc(C(F)(F)F)cc(C(F)(F)F)c1C(=O)NC(c1ccccc1)C1(N2CCCC2)CC1` (stereo not drawn) [Example 6, 2-Methylsulfanyl-N-[phenyl-(1-pyrrolidin-1-yl-cyclopropyl)-methyl]-4,6-bis-trifluoromethyl-benzamide], half-maximal inhibition (IC50) required 0.0683 µM.
`CSc1cc(C(F)(F)F)cc(C(F)(F)F)c1C(=O)NC(c1ccccc1)C1(N2CCCC2)CCC1` (stereo not drawn) [Example 9, 2-Methylsulfanyl-N-[phenyl-(1-pyrrolidin-1-yl-cyclobutyl)-methyl]-4,6-bis-trifluoromethyl-benzamide] displayed a 50% inhibitory concentration (IC50) of 0.0295 µM.
In the case of `COc1cc(C(F)(F)F)cc(SC)c1C(=O)NC(c1ccccc1)C1(N2CCCC2)CC1` (stereo not drawn) [Example 10, 2-Methoxy-6-methylsulfanyl-N-[phenyl-(1-pyrrolidin-1-yl-cyclopropyl)-methyl]-4-trifluoromethyl-benzamide] it was 0.0253 µM; in that of `COc1cc(F)cc(SC)c1C(=O)NC(c1ccccc1)C1(N2CCCC2)CCC1` (stereo not drawn) [Example 11, 4-Fluoro-2-Methoxy-6-methylsulfanyl-N-[phenyl-(1-pyrrolidin-1-yl-cyclobutyl)-methyl]-benzamide], 0.0122 µM; in that of `COc1cc(C(F)(F)F)cc(SC)c1C(=O)NC(c1ccccc1)C1(N2CCCC2)CCC1` (stereo not drawn) [Example 12, 2-Methoxy-6-methylsulfanyl-N-[phenyl-(1-pyrrolidin-1-yl-cyclobutyl)-methyl]-4-trifluoromethyl-benzamide], 0.0112 µM.
Molecule `CSc1cccc(C(F)(F)F)c1C(=O)NC(c1ccccc1)C1(N2CCCC2)CCC1` (stereo not drawn) [Example 13, 2-Methylsulfanyl-N-[phenyl-(1-pyrrolidin-1-yl-cyclobutyl)-methyl]-6-trifluoromethyl-benzamide] showed an IC50 of 0.034 µM.
Turning to `COc1cc(C(F)(F)F)cc(C(F)(F)F)c1C(=O)NC(c1ccccc1)C1(N2CCCC2)CCC1` (stereo not drawn) [Example 14, 2-Methoxy-N-[phenyl-(1-pyrrolidin-1-yl-cyclobutyl)-methyl]-4,6-bis-trifluoromethyl-benzamide], the half-inhibitory concentration (IC50) was found to be 0.0455 µM.
Molecule `O=C(NC(c1ccccc1)C1(N2CCCC2)CCC1)c1ccc(C(F)(F)F)cc1C(F)(F)F` (stereo not drawn) [Example 15, N-[Phenyl-(1-pyrrolidin-1-yl-cyclobutyl)-methyl]-2,4-bis-trifluoromethyl-benzamide] showed a half-maximal inhibitory concentration (IC50) of 0.0312 µM.
In turn, `CSc1cc(C(F)(F)F)ccc1C(=O)NC(c1ccccc1)C1(N2CCCC2)CCC1` (stereo not drawn) [Example 16, 2-Methylsulfanyl-N-[phenyl-(1-pyrrolidin-1-yl-cyclobutyl)-methyl]-4-trifluoromethyl-benzamide] gave a 50% inhibitory concentration (IC50) of 0.0134 µM.
In turn, `COc1cc(C(F)(F)F)ccc1C(=O)NC(c1ccccc1)C1(N2CCCC2)CCC1` (stereo not drawn) [Example 17, 2-Methoxy-N-[phenyl-(1-pyrrolidin-1-yl-cyclobutyl)-methyl]-4-trifluoromethyl-benzamide] returned an IC50 of 0.0368 µM.
In the case of `CSc1cc(C(F)(F)F)ccc1C(=O)NC(c1ccc(F)cc1)C1(N2CCCC2)CCC1` (stereo not drawn) [Example 24, N-[(4-Fluoro-phenyl)-(1-pyrrolidin-1-yl-cyclobutyl)-methyl]-2-methylsulfanyl-4-trifluoromethyl-benzamide] it was 0.02 µM; in that of `CSc1cc(C(F)(F)F)ccc1C(=O)NC(c1ccc(Cl)cc1)C1(N2CCCC2)CCC1` (stereo not drawn) [Example 36, N-[(4-Chloro-phenyl)-(1-pyrrolidin-1-yl-cyclobutyl)-methyl]-methylsulfanyl-4-trifluoromethyl-benzamide], 0.0597 µM.
In turn, `CCc1cc(C(F)(F)F)cc(C(F)(F)F)c1C(=O)NC(c1ccccc1)C1(N2CCCC2)CCC1` (stereo not drawn) [Example 37] registered an IC50 of 0.0398 µM.
`COc1cc(C(F)(F)F)cc(SC)c1C(=O)NC(c1ccc(F)cc1)C1(N2CCCC2)CCC1` (stereo not drawn) [Example 38, N-[(4-Fluoro-phenyl)-(1-pyrrolidin-1-yl-cyclobutyl)-methyl]-2-methoxy-6-methylsulfanyl-4-trifluoromethyl-benzamide] yielded an IC50 of 0.0175 µM.
As to `COc1cc(C(F)(F)F)cc(SC)c1C(=O)NC(c1ccc(Cl)cc1)C1(N2CCCC2)CCC1` (stereo not drawn) [Example 39, N-[(4-Chloro-phenyl)-(1-pyrrolidin-1-yl-cyclobutyl)-methyl]-2-methoxy-6-methylsulfanyl-4-trifluoromethyl-benzamide], half-maximal inhibition (IC50) was put at 0.0211 µM.
In the case of `CSc1cc(C(F)(F)F)ccc1C(=O)NC(c1cc(F)cc(F)c1)C1(N2CCCC2)CCC1` (stereo not drawn) [Example 40, N-[(3,5-Difluoro-phenyl)-(1-pyrrolidin-1-yl-cyclobutyl)-methyl]-2-methylsulfanyl-4-trifluoromethyl-benzamide], the IC50 came to 0.0322 µM.
In the case of `Cc1cc(C(F)(F)F)ccc1C(=O)NC(c1ccccc1)C1(N2CCCC2)CCC1` (stereo not drawn) [Example 41, 2-Methyl-N-[phenyl-(1-pyrrolidin-1-yl-cyclobutyl)-methyl]-4-trifluoromethyl-benzamide] it was 0.0148 µM.
The molecule `O=C(NC(c1ccccc1)C1(N2CCCC2)CCC1)c1ccc(Cl)cc1Cl` (stereo not drawn) [Example 43, 2,4-Dichloro-N-[phenyl-(1-pyrrolidin-1-yl-cyclobutyl)-methyl]-benzamide] came in with an IC50 of 0.0669 µM.
As for `O=C(NC(c1ccccc1)C1(N2CCCC2)CCC1)c1ccccc1C(F)(F)F` (stereo not drawn) [Example 44, N-[Phenyl-(1-pyrrolidin-1-yl-cyclobutyl)-methyl]-2-trifluoromethyl-benzamide], half-maximal inhibition (IC50) required 0.0951 µM.
In the case of `COc1cc(Cl)ccc1C(=O)NC(c1ccccc1)C1(N2CCCC2)CCC1` (stereo not drawn) [Example 47, 4-Chloro-2-methoxy-N-[phenyl-(1-pyrrolidin-1-yl-cyclobutyl)-methyl]-benzamide] it was 0.0724 µM.

(Values after patent US8063098B2, “GlyT1 receptor antagonists” (Hoffmann-La Roche Inc., priority 2008, dated 2011).)
